Results: article PMC4072668, “Mass Spectrometric Detection and Characterization of Atypical Membrane-Bound Zinc-Sensitive Phosphatases Modulating GABAA Receptors” (PLoS ONE, 2014)

Key:
[1] = tested on: GABAA receptor currents in pyramidal neurons; parameters: method as in PMID 15342727; settings: 10 µM in the pipette milieu, four neurons; cited from earlier work
[2] = tested on: PP2A; parameters: method as in PMID 10617768; settings: mammalian brain; cited from earlier work
[3] = tested on: PP1; parameters: method as in PMID 10617768; settings: mammalian brain; cited from earlier work
[4] = tested on: alkaline phosphatase; parameters: method as in PMID 10617768; settings: up to 1–10 µM; cited from earlier work
[5] = tested on: membrane-bound phosphatase activities of washed cortical membrane; experiment: LC-MS/MS phosphatase assay with effectors, C-terminal phosphopeptide pI2α1C-P as substrate; assay type: biochemical
Protocol: (§1) Phosphatasic activity of bovine, rat and human washed cortical membranes was measured by using synthetic phosphopeptides as substrates. Reactions were performed in presence of 50 µg/ml (total proteins) of washed cortical membrane, 10 mM Hepes-Tris pH 7.4 and 1 mM MgCl2. Enzymatic reactions were initiated by adding 10 µM of phosphopeptide incubated for 10 min at 30°C and stopped by adding ice-cold acetic acid at a final concentration of 10% (w/v). Following a 800 g centrifugation during 10 min at 4°C, the supernatants were analyzed by LC-MS/MS. […] For these reasons, and to avoid micro-capillary column obstruction we have preferentially used the micro-LC column to characterize the pharmacological profile of phosphatasic activities.
Quantification of appearance of the native peptide and disappearance of the phosphopeptide in different conditions was performed using the calibration curve plotted using the Xcalibur software (P/N 64018-XCALI version 1.3). […]
Figure 4 Effects of various inhibitors on the membrane-bound phosphatase activities. […] The activities are expressed as a percentage of that of control samples without inhibitors. […]

[6] = tested on: acid phosphatase; parameters: method as in PMID 10617768; settings: up to 1–10 µM; cited from earlier work
[7] = tested on: PP7; parameters: method as in PMID 10617768; settings: up to 1–10 µM; cited from earlier work
[8] = tested on: PP2C; parameters: method as in PMID 10617768; settings: up to 1–10 µM; cited from earlier work
[9] = tested on: PTP; parameters: method as in PMID 10617768; settings: up to 1–10 µM; cited from earlier work
[10] = tested on: PP4; parameters: method as in PMID 10617768; settings: mammalian brain; cited from earlier work
[11] = tested on: PP5; parameters: method as in PMID 10617768; settings: mammalian brain; cited from earlier work
[12] = tested on: GABAA receptor currents in pyramidal neurons; experiment: Whole-cell patch clamp, rundown of GABAA currents in acutely dissociated cortical pyramidal neurons; assay type: cell-based, rat; settings: 10 µM in the pipette
Protocol: Adult Sprague Dawley rats (35–40 days of age) were anesthetized by isoflurane and killed by decapitation. The brains were removed quickly and placed in cold artificial cerebro-spinal fluid (Ringer) containing (in mM) 126 NaCl, 3 KCl, 26 NaHCO3, 1.25 Na2HPO4, 2.5 CaCl2, 1.5 MgCl2, 10 D-glucose, saturated with carbogen gas (O2:CO2, 95:5%) pH 7.4. Cortical neurons were acutely dissociated from 400 µm thick slices by incubation in 3 mg/ml protease-XXIII (Sigma) at 32°C, followed by mechanical dissociation. After washing, the cells were transferred in a solution containing (in mM) 135 NaCl, 3 KCl, 2 CaCl2, 10 Hepes, 1 MgCl2, 7 TEA-Cl, 10 D-glucose, and 1 µM TTX, pH 7.4. Pyramidal neurons were recorded using borosilicate glass pipettes (4–5 MΩ) filled with a solution containing (in mM) 130 CsF, 10 CsCl, 4 NaCl, 0.5 CaCl2, 10 Hepes, 5 EGTA, and 7 Mg-ATP. Okadaic acid at 10 µM was added to this intracellular milieu for specific experiments.
Whole-cell peak currents induced by GABA (100 µM; fast applications of 1 sec pulses every 3 min) were measured for each application and normalized to the maximal response.
Figure 5 Effects of okadaic acid on the GABAA current rundown. GABAA currents were measured by whole-cell patch clamp on acutely dissociated cortical pyramidal neurons from Sprague Dawley rats. (A) Micrographs of a patched cell at two different magnifications, showing the rapid application device (left). (B) Rundown in cortical neuron: GABA was applied at a concentration of 100 µM during 1 second every 3 min. […] For each group the plot (Left) is the average of normalized currents. Error bars indicate the SEM.

[13] = tested on: membrane-bound phosphatase activities of washed cortical membrane; experiment: LC-MS/MS phosphatase assay with effectors, N-terminal phosphopeptide pI2α1N-P as substrate; assay type: biochemical
Protocol: as §1
Quantification of appearance of the native peptide and disappearance of the phosphopeptide in different conditions was performed using the calibration curve plotted using the Xcalibur software (P/N 64018-XCALI version 1.3). The calibration curve and linear regression were constructed using a series of standards, native and phosphorylated equimolar mixture, N- or C-terminal peptides at different concentrations 0.5, 1, 2, 5 and 10 µM (n = 2) in 10 mM Hepes pH 7.4, 1 mM Mg^2+ and 10% acetic acid, which was the same milieu condition as in the phosphatase assay after stopping reactions. The linear regression represents peak area of MS/MS chromatogram spectra depending on the peptide concentration (Figure S1).
Different effectors were tested by addition to the incubation medium at variable concentration: the dicationic ions Mg^2+, Ca^2+, Zn^2+ were used as chloride, the polycation spermine as hydrochloride, the anion F^− as sodium fluoride (NaF), and the inhibitors of some known phosphatases okadaic acid and the two (+/−) enantiomers of p–bromotetramisole oxalate (p-Br-t). For the inhibitory effects, relative 50% inhibition concentration (IC50) values were either determined graphically with a log-scale for the concentration axis or by the ‘log (inhibitor) vs. response’ nonlinear fit of Prism 5 software (GraphPad), considering activity in the absence of inhibitor as 100%.
Figure 4 Effects of various inhibitors on the membrane-bound phosphatase activities. […] Incubations were performed at 30°C during 10 min. The activities are expressed as a percentage of that of control samples without inhibitors. Inhibition profiles of PPase activities by okadaic acid were performed using N-terminal phosphopeptide (A) or C-terminal phosphopeptide (B) as substrate. The data points are means ± SEM of 3 experiments. The red arrows indicate the different IC50. […] Data points are the average ± SEM of duplicate assays. (D) Effect of Ca^2+ ions, fluoride (F^−) and spermine (SPM^4+) on PPase activity using N-terminal phosphopeptide as substrate.

[14] = tested on: PP2B; parameters: method as in PMID 10617768; settings: mammalian brain; cited from earlier work
[15] = tested on: PP6; parameters: method as in PMID 10617768; settings: mammalian brain; cited from earlier work

Question: What does the source list for `C=C1[C@@H](O)[C@@H]2O[C@]3(CC[C@H](/C=C/[C@@H](C)[C@@H]4CC(C)=C[C@@]5(O[C@H](C[C@@](C)(O)C(=O)O)CC[C@H]5O)O4)O3)CC[C@H]2O[C@@H]1[C@@H](O)C[C@H](C)[C@H]1O[C@@]2(CCCCO2)CC[C@H]1C` [okadaic acid, Okadaic acid]?
Answer: effect on the GABAA current rundown [1]: variable effect; IC50 [2]: 2 nM; IC50 [3]: 270 nM; inhibition [4]: not inhibited; inhibition of membrane-bound phosphatases ([5]; 300 nM): completely inhibits; IC50 ([5]; only one affinity, read-out: apparent IC50): 0.18 nM; inhibition [6]: not inhibited; inhibition [7]: not inhibited; inhibition [8]: not inhibited; inhibition [9]: not inhibited; IC50 [10]: 0.2 nM; IC50 [11]: 1.4 to 10 nM; GABAA current rundown in some cells [12]: rundown could be abolished; GABAA current rundown, 'Very Rapid' group of neurons vs control ([12]; n = 5, Dunnett's test Ns): not sensitive to okadaic acid; GABAA current rundown, 'Mid Rapid', 'Mid Slow' and 'Very Slow' groups of neurons vs control ([12]; p<0.01 Mid Rapid, p<0.0001 Mid Slow and Very Slow): statistically different from the control; inhibition of membrane-bound phosphatases ([13]; 300 nM, substrate pI2α1N-P): completely inhibits; inhibition of phosphatasic activities by the phosphopeptide method ([13]; 10 µM, substrate not specified): inhibited most phosphatasic activities; IC50 ([13]; substrate pI2α1N-P, read-out: apparent IC50, high affinity (H)): 0.15 nM; IC50 ([13]; substrate pI2α1N-P, read-out: apparent IC50, low affinity (L)): 5 nM; IC50 [14]: 3600 nM; IC50 [15]: 2 nM
